In ChEMBL document CHEMBL4725469, “Hydrogen Peroxide Inducible JAK3 Covalent Inhibitor: Prodrug for the Treatment of RA with Enhanced Safety Profile” (ACS Med Chem Lett, 2020):
The source made the active and inactive calls. No cut-off for these calls is given here.

Assays:
[1] = target: T1, Tyrosine-protein kinase JAK3 (Mus musculus) (UniProt Q62137); assay: Inhibition of JAK3 in mouse BaF3/TEL-JAK3 cells assessed as effect on STAT3 phosphorylation at 0.125 to 2 uM by Western blot analysis; format: cell-based; settings: dose microM 0.125-2
T1 sequence (whole entry): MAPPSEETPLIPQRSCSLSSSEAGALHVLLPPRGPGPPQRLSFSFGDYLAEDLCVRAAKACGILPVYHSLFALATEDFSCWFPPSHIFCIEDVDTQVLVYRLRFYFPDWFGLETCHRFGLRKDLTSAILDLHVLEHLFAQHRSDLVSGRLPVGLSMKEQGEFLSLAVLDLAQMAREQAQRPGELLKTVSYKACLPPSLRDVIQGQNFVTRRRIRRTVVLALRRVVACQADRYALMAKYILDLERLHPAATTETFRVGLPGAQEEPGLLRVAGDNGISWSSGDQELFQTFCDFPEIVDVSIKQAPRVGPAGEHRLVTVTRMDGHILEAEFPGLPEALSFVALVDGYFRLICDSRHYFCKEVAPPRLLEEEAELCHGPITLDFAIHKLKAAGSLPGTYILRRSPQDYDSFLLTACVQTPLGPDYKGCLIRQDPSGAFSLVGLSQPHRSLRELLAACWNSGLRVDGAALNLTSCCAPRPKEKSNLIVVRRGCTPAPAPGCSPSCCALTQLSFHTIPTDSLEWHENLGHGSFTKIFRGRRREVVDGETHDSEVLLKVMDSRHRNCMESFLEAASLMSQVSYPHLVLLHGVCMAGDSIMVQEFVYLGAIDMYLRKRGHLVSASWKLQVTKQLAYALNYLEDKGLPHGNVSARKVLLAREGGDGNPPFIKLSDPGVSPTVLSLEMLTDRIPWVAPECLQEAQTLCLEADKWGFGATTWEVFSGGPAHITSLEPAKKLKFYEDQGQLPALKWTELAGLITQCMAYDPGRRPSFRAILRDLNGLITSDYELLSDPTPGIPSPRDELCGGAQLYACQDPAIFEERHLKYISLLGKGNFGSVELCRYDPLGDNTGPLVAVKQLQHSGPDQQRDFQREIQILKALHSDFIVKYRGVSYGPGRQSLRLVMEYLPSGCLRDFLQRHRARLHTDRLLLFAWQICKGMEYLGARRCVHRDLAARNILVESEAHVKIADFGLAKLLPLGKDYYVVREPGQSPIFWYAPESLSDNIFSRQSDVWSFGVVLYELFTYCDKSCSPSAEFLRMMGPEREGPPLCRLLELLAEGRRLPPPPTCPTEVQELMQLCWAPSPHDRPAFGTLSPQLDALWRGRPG

[2] = Toxicity in ICR mouse assessed as increase in spleen weight at 100 mg/kg, ip administered for 14 days; format: organism-based; settings: in vivo, 336 h, time 14 day
[3] = Cmax in Sprague-Dawley rat at 20 mg/kg, ip measured for 0.8 to 24 hrs by LC-MS/MS analysis; format: ADME, organism-based; design: route intraperitoneal, dose 20 mg/kg, time 0.8-24; settings: in vivo
[4] = Permeability of compound at pH 7.4 by PAMPA assay; format: ADME; settings: read-out: permeability
[5] = Toxicity in ICR mouse assessed as increase in liver weight at 100 mg/kg, ip administered for 14 days; format: organism-based; settings: in vivo, 336 h, time 14 day
[6] = Aqueous solubility of compound at pH 7.4; format: physicochemical; settings: buffer
[7] = target: T1, Tyrosine-protein kinase JAK3 (Mus musculus); assay: Inhibition of JAK3 in mouse BaF3/TEL-JAK3 cells assessed as effect on STAT5 phosphorylation at 0.125 to 2 uM by Western blot analysis; format: cell-based; settings: dose microM 0.125-2
[8] = Tmax in Sprague-Dawley rat at 20 mg/kg, ip measured for 0.8 to 24 hrs by LC-MS/MS analysis; format: ADME, organism-based; settings: in vivo, time 0.8-24 hrs
[9] = Drug level in ankle joint of collagen/complete freund's adjuvant-induced rheumatoid arthritis DBA/1J mouse model at 20 mg/kg, ip by LC-MS/MS analysis; format: ADME, organism-based; settings: in vivo, read-out: Ct
[10] = Half life in Sprague-Dawley rat at 20 mg/kg, ip measured for 0.8 to 24 hrs by LC-MS/MS analysis; format: ADME, organism-based; settings: in vivo, time 0.8-24 hrs
[11] = MRT (0 to infinity) in Sprague-Dawley rat at 20 mg/kg, ip measured for 0.8 to 24 hrs by LC-MS/MS analysis; format: ADME, organism-based; settings: in vivo, time 0.8-24 hrs
[12] = Dissociation constant, pKa of the compound; format: physicochemical
[13] = Toxicity in ICR mouse assessed as inflammatory inflammation in lungs at 100 mg/kg, ip administered for 14 days; format: organism-based; settings: in vivo, 336 h, time 14 day
Mus musculus [14] = assay: Antiarthritic activity in collagen/complete freund's adjuvant-induced rheumatoid arthritis DBA/1J mouse model assessed as inhibition of feet swelling at 10 mg/kg, ip administered for 14 days by H and E staining based analysis; format: functional, organism-based; settings: time 14.0 day
[15] = Apparent clearance in Sprague-Dawley rat at 20 mg/kg, ip measured for 0.8 to 24 hrs by LC-MS/MS analysis; format: ADME, organism-based; settings: in vivo, time 0.8-24 hrs
[16] = AUC in Sprague-Dawley rat at 20 mg/kg, ip measured for 0.8 to 24 hrs by LC-MS/MS analysis; format: ADME, organism-based; design: route intraperitoneal, dose 20 mg/kg, time 0.8-24; settings: in vivo
[17] = Apparent volume of distribution in Sprague-Dawley rat at 20 mg/kg, ip measured for 0.8 to 24 hrs by LC-MS/MS analysis; format: ADME, organism-based; settings: in vivo, time 0.8-24 hrs
[18] = Toxicity in ICR mouse assessed as inflammatory inflammation in heart at 100 mg/kg, ip administered for 14 days; format: organism-based; settings: in vivo, 336 h, time 14 day
[19] = Toxicity in ICR mouse assessed as effect on body weight at 100 mg/kg, ip administered for 14 days; format: organism-based; settings: in vivo, 336 h, time 14 day
[20] = Stability in human plasma at 20 uM after 0.25 to 24 hrs by RP-UPLC-UV analysis; format: ADME, cell-free; settings: time 0.25-24 hrs, read-out: Stabilty
Mus musculus [21] = assay: In vivo inhibition of JAK3 in collagen/complete freund's adjuvant-induced rheumatoid arthritis DBA/1J mouse model assessed as effect on STAT5 phosphorylation in lung at 20 mg/kg, ip administered for 14 days by Western blot analysis; format: functional, organism-based; settings: time 14.0 day
[22] = Stability in mouse plasma at 20 uM after 0.25 to 24 hrs by RP-UPLC-UV analysis; format: ADME, cell-free; settings: time 0.25-24 hrs, read-out: Stabilty
[23] = Stability in simulated intestinal fluid incubated for 0.25 to 24 hrs by RP-UPLC-UV analysis
[24] = Prodrug activation in collagen/complete freund's adjuvant-induced rheumatoid arthritis DBA/1J mouse model assessed as Z)-2-((5-(1-cyclohexyl-1,6-dihydroimidazo[4,5-d]pyrrolo[2,3-b]pyridin-2-yl)furan-2-yl)(hydroxy)methyl)-3-(dimethylamino)-3-((4-(4,4,5,5-tetramethyl-1,3,2-dioxaborolan-2-yl)benzyl)oxy)acrylonitrile level in ankle joint at […], ip by LC-MS/MS analysis; format: organism-based; settings: in vivo, 20 mg/kg, read-out: Ct
[25] = Prodrug activation in DMSO assessed as H2O2 mediated prodrug release after 4 hrs in presence of 0.1 uM H2O2 after 4 hrs by RP-HPLC-UV analysis
[26] = Stability in simulated gastric fluid measured after 0.25 to 24 hrs by RP-UPLC-UV analysis
Mus musculus [27] = assay: Antiarthritic activity in DBA/1J mouse model assessed as effect on collagen/complete freund's adjuvant-induced disordered synovial cells in ankle joints at 20 mg/kg, ip administered for 14 days by H and E staining analysis; format: functional, organism-based; settings: time 14.0 day
Mus musculus [28] = assay: In vivo inhibition of JAK3 in collagen/complete freund's adjuvant-induced rheumatoid arthritis DBA/1J mouse model assessed as effect on STAT5 phosphorylation in spleen at 20 mg/kg, ip administered for 14 days by Western blot analysis; format: functional, organism-based; settings: time 14.0 day
Mus musculus [29] = assay: Antiarthritic activity in ip dosed collagen/complete freund's adjuvant-induced rheumatoid arthritis DBA/1J mouse model assessed as inhibition of feet swelling administered for 14 days by H and E staining based analysis; format: functional, organism-based; settings: dose mg/kg 5-20, time 14.0 day
Mus musculus [30] = assay: Antiarthritic activity in collagen/complete freund's adjuvant-induced rheumatoid arthritis DBA/1J mouse model assessed as inhibition of feet swelling at 20 mg/kg, ip administered for 14 days by H and E staining based analysis; format: functional, organism-based; settings: time 14.0 day
Mus musculus [31] = assay: Antiarthritic activity in DBA/1J mouse model assessed as effect on collagen/complete freund's adjuvant-induced synovial hyperplasia at 20 mg/kg, ip administered for 14 days by H and E staining analysis; format: functional, organism-based; settings: time 14.0 day
Mus musculus [32] = assay: Antiarthritic activity in ip dosed collagen/complete freund's adjuvant-induced rheumatoid arthritis DBA/1J mouse model assessed as reduction in IL-2 level in serum administered for 14 days by ELISA; format: functional, organism-based; settings: dose mg/kg 5-20, time 14.0 day
Mus musculus [33] = assay: In vivo inhibition of JAK3 in collagen/complete freund's adjuvant-induced rheumatoid arthritis DBA/1J mouse model assessed as effect on STAT5 phosphorylation in liver at 20 mg/kg, ip administered for 14 days by Western blot analysis; format: functional, organism-based; settings: time 14.0 day
Mus musculus [34] = assay: Antiarthritic activity in ip dosed collagen/complete freund's adjuvant-induced rheumatoid arthritis DBA/1J mouse model assessed as reduction in G-CSF level in serum administered for 14 days by ELISA; format: functional, organism-based; settings: dose mg/kg 5-20, time 14.0 day
Mus musculus [35] = assay: Antiarthritic activity in DBA/1J mouse model assessed as effect on collagen/complete freund's adjuvant-induced eroded synovial cells in ankle joints at 20 mg/kg, ip administered for 14 days by H and E staining analysis; format: functional, organism-based; settings: time 14.0 day
Mus musculus [36] = assay: In vivo inhibition of JAK3 in collagen/complete freund's adjuvant-induced rheumatoid arthritis DBA/1J mouse model assessed as effect on STAT5 phosphorylation in heart at 20 mg/kg, ip administered for 14 days by Western blot analysis; format: functional, organism-based; settings: time 14.0 day
Mus musculus [37] = assay: Antiarthritic activity in ip dosed collagen/complete freund's adjuvant-induced rheumatoid arthritis DBA/1J mouse model assessed as reduction in serum amyloid A level administered for 14 days by ELISA; format: functional, organism-based; settings: dose mg/kg 5-20, time 14.0 day
[38] = Stability in phosphate buffer saline at pH 7.4 after 0.25 to 24 hrs by RP-UPLC-UV analysis; format: physicochemical; settings: time 0.25-24 hrs
Mus musculus [39] = assay: In vivo inhibition of JAK3 in collagen/complete freund's adjuvant-induced rheumatoid arthritis DBA/1J mouse model assessed as effect on STAT5 phosphorylation in kidney at 20 mg/kg, ip administered for 14 days by Western blot analysis; format: functional, organism-based; settings: time 14.0 day

| inhibition [1] | Cmax [3] | Papp [4] | solubility [6] | inhibition [7] | Tmax [8] | concentration [9] | t1/2 [10] | MRT inf [11] | pKa [12] | CL(app) [15] | AUC [16] | Vz [17] | SMILES | Activity [2] | Activity [5] | Activity [19] | further results |
| --- | --- | --- | --- | --- | --- | --- | --- | --- | --- | --- | --- | --- | --- | --- | --- | --- | --- |
| Active | 455.37 ng/mL | 14.7 ×10⁻⁶ cm/s | 0.719 mg/kg | Active | 0.17 h | 1070 nM | 2.36 h | 3.84 h | 10.1 | 100 mL/min/kg | 331.91 µg·h/mL | 27.96 L/kg | CN(C)C(=O)/C(C#N)=C/c1ccc(-c2nc3cnc4[nH]ccc4c3n2C2CCCCC2)o1 | Toxic | Toxic | Toxic | Activity [13]: Toxic; inhibition (Mus musculus [14]): Active; Activity [18]: Toxic |
| Active | 983.33 ng/mL | 56.4 ×10⁻⁶ cm/s | 0.011 mg/kg | Active | 0.25 h | 290 nM | 2.92 h | 2.38 h | 10.7 | 35 mL/min/kg | 963.5 µg·h/mL | 8.7 L/kg | CN(C)/C(OCc1ccc(B2OC(C)(C)C(C)(C)O2)cc1)=C(\C#N)C(O)c1ccc(-c2nc3cnc4[nH]ccc4c3n2C2CCCCC2)o1 (stereo not given) | Non-Toxic | Non-Toxic | Non-Toxic | remaining at 20 µM [20]: > 95%; inhibition (Mus musculus [21]): inactive; remaining at 20 µM [22]: > 95%; Stability [23]: > 95%; concentration [24]: 1130 nM; Drug metabolism [25]: Not Active; Stability [26]: > 95%; Activity (Mus musculus [27]): Active; inhibition (Mus musculus [28]): inactive; inhibition (Mus musculus [29]): Dose-dependent effect; inhibition (Mus musculus [30]): Active; Activity (Mus musculus [31]): Active; Activity (Mus musculus [32]): Active; inhibition (Mus musculus [33]): inactive; Activity (Mus musculus [34]): Active; Activity (Mus musculus [35]): Active; inhibition (Mus musculus [36]): inactive; Activity (Mus musculus [37]): Active; Stabilty [38]: > 95%; inhibition (Mus musculus [39]): inactive |
